Like-named read-outs stand apart in the source and are kept apart here.
Experiments:
[1] = system: palpebral conjunctiva of Cynomolgus monkeys; details: cited from earlier work
[2] = non-human primate, after single or multiple topical bimatoprost dosing; cited from earlier work
[3] = system: rabbit isolated jugular veins; assay: Vasorelaxation in histamine-precontracted rabbit isolated jugular veins; type: cell-based
Source text: FIG. 3. Concentration-response curves for (FIG. 3A) bimatoprost and (FIG. 3B) latanoprost free acid in histamine-precontracted endothelium-intact and endothelium-denuded rabbit isolated jugular veins. Results are expressed as mean±S.E.M. of 5-6 animals. FIG. 3A adapted from Chen J et al., Invest Ophthalmol Vis Sci 2004; 45:ARVO E-Abstract 2609; FIG. 3B extends results reported in Chen J et al., Invest Ophthalmol Vis Sci 2004; 45:ARVO E-Abstract 2609; and Pharmacology Review of New Drug Application 21-275. FDA/Center for Drug Evaluation and Research. 2001;Part 1 and Part 2:1-107. Available online at http://www.fda.gov/cder/foi/nda/2001/21275_Lumigan.htm.
FIG. 4. Concentration-response curves for (FIG. 4A) bimatoprost and (FIG. 4B) latanoprost free acid in the presence or absence of indomethacin in endothelium-intact rabbit isolated jugular veins. Results are expressed as mean±S.E.M. of 7 animals and extend previous results reported in Pharmacology Review of New Drug Application 21-275. FDA/Center for Drug Evaluation and Research. 2001;Part 1 and Part 2:1-107. Available online at http://www.fda.gov/cder/foi/nda/2001/21275_Lumigan.htm.
FIG. 5. Concentration-response curves for (FIG. 5A) bimatoprost and (FIG. 5B) latanoprost free acid in the presence of 100 μM L-NAME or 100 (μM D-NAME control in endothelium-intact rabbit isolated jugular veins. Results are expressed as mean±S.E.M. of 6 animals. *P≦0.05, compared to responses in D-NAME pretreated tissues at the same concentration, paired t-test.
The pharmacological mechanism of ocular surface hyperemia elicited by bimatoprost and latanoprost was investigated using the rabbit jugular vein preparation as a quantitative in vitro model (Chen J. et al., Br J Pharmacol 1995; 116:3035-3041). In these studies, tissues were suspended in jacketed organ baths containing Krebs buffer with 1 μM indomethacin (endothelium-intact and -denuded) or in its absence (endothelium-intact) and precontracted with 3 μM histamine. Vasorelaxant and contractile activity were determined as a percentage (%) of the control tone elicited by histamine. Statistical comparisons for the vasorelaxant activity consisted of testing for significance of difference at each of the concentrations tested using the Student'-s t-test for unpaired samples (indomethacin vs no indomethacin) and paired samples (L-NAME vs D-NAME). Differences were considered statistically significant for P-values ≦0.05.
Indomethacin is a cyclooxygenase inhibitor that is routinely used in prostanoid receptor assays (Chen J et al., Current protocols in pharmacology. New York: John Wiley & Sons, Inc., 2001; 4.18.1-4.18.41). Studies of intact and viable isolated tissues, such as the rabbit jejunum (Ferreira S H, Herman A G, Vane J R., Br J Pharmacol 1976; 56:469-477) and human bronchial muscle (Haye-Legrand I, Cerrina J, Raffestin B et al., J Pharmacol Exp Ther 1986; 239:536-541), found the basal output of prostaglandins to be 8-23 pg/mg of tissue at baseline or over 30 min collection periods. In the presence of 1.7 and 2.79 μM indomethacin, the amounts of prostaglandins generated in isolated tissues become negligible (Botting J H, Salzmann R., Br J Pharmacol 1974; 50:119-124; Haye-Legrand I, Cerrina J, Raffestin B et al., J Pharmacol Exp Ther 1986; 239:536-541). The 1 μM concentration of indomethacin in the tissue bath, in our experience, is sufficient to prevent biosynthesis of prostanoids within isolated vascular tissue preparations (Alster P, Wennmalm Å., Eur J Pharmacol 1983; 86:441-446; Chen J et al., Current protocols in pharmacology. New York: John Wiley & Sons, Inc., 2001; 4.18.1-4.18.41). At substantially higher concentrations, indomethacin has been reported to lose selectivity for prostanoid biosynthesis inhibition (Aboulafia J et al., Br J Pharmacol 1976; 58:223-228; Goodfriend T L, Simpson R U., Br J Pharmacol 1981; 72:247-255; Northover B J, Br J Pharmacol 1971; 41:540-551; Sawdy R et al., Br J Pharmacol 1998; 125:1212-1217). […]

Which “Incidence of inflammation in palpebral conjunctiva (number of animals with histopathologic findings), Upper Eyelid, Chronic active” value ([1]; n = 6, right eye, bimatoprost 0.03% b.i.d. for 12 months) does the source give for `CCNC(=O)CCC/C=C\C[C@@H]1[C@@H](/C=C/[C@@H](O)CCc2ccccc2)[C@H](O)C[C@@H]1O` [Bimatoprost, bimatoprost] here?
The value was 5.

And the “Incidence of inflammation in palpebral conjunctiva (number of animals with histopathologic findings), Upper Eyelid, Chronic active” value ([1]; n = 6, right eye, bimatoprost 0.1% b.i.d. for 12 months)?
Its value is 3.

What about the “Incidence of inflammation in palpebral conjunctiva (number of animals with histopathologic findings), Upper Eyelid, Chronic active” value ([1]; n = 8, right eye, bimatoprost 0.03% q.d. for 12 months) of the same molecule?
Its value is 4.

What about the “concentrations found in ocular surface tissues” value [2] of the same molecule?
The value was 10^−6-10^−5 molar equivalent.

And the “vasorelaxant response in presence of 100 μM L-NAME compared to 100 μM D-NAME control” value ([3]; endothelium-intact histamine precontracted tissues, P≦0.05 paired t-test)?
Its value is “significantly inhibited”.

And the “difference in effects with and without 1 μM indomethacin” value ([3]; endothelium-intact tissues, each concentration tested)?
The value was “no statistically significant differences”.

From patent publication US9579328B2, “Prostaglandin and vasoconstrictor pharmaceutical compositions and methods of use” (ALLERGAN, INC., priority 2012, dated 2017)
